Data set [1] has as its system Staphylococcus aureus (ATCC No. 6538). As to the kind of experiment: Antibacterial activity, log reduction of cfu. It counts as cell-based. An excerpt: (§1) The viable microorganisms used in the invention were not more than five passages removed from the original ATCC culture. As described herein, one passage is defined as the transfer of organisms from an established culture to fresh medium and all transfers are counted.
(§2) Cultures received from the ATCC are resuscitated according to the directions provided by the ATTC. Cells grown in broth were pelleted by centrifugation, resuspended in 1/20th the volume of fresh maintenance broth, and combined with an equal volume of 20% (v/v in water) sterile glycerol. Cells grown on agar were scraped from the surface into the maintenance broth also containing 10% glycerol broth. Small aliquots of the suspension were dispensed into sterile vials and the vials were stored in liquid nitrogen or in a mechanical freezer at a temperature no higher than about −50 °C. When a fresh seed-stock vial was required, it was removed and used to inoculate a series of working stock cultures. These working stock cultures were then used periodically (each day in the case of bacteria and yeast) to start the inoculum culture.
(§3) The culture conditions for the inoculum culture is substantially as described in Table IV. For example, suitable media can include but is not limited to, Soybean-Casein Digest or Sabouraud Dextrose Agar Medium. […]
(§4) The suspension should be refrigerated if it is not used within 2 hours. To confirm the initial cfu per mL estimate, the number of cfu per mL in each suspension was determined using the conditions of media and microbial recovery incubation times listed in Table IV (e.g., from about 3 to about 7 days). This value serves to calibrate the size of inoculum used in the test. The bacterial and yeast suspensions were used within 24 hours of harvest; whereas the fungal preparation can be stored under refrigeration for up to 7 days.
(§5) To determine which alkylglycoside formulations have antibacterial activity, the formulations were prepared in phosphate buffered saline (PBS) at pH 7. As a source of nutrition, either 1.5 mg/mL bovine serum albumin (BSA; see Tables V and VI) or 1 mg/mL of PYY was added (see Table VII) to the medium. BSA (CAS Number: 9048-46-8) was obtained from Sigma-Aldrich, St. Louis, MO, USA, n-dodecyl-4-O-α-D-glucopyranosyl-β-D-glucopyranoside and n-tetradecyl-4-O-α-D-glucopyranosyl-β-D-glucopyranoside were obtained from Anatrace Inc., Maumee, OH, USA, and PYY was obtained from Bachem California Inc., Torrance, CA, USA.
(§6) Antibacterial activity of the alkylglycosides were conducted in four sterile, capped bacteriological containers of suitable size into which a sufficient volume of alkylglycoside solution had been transferred. Each container was inoculated with one of the prepared and standardized inoculums and mixed. The volume of the suspension inoculum was between about 0.5% and about 1.0% of the volume of the alkylglycoside solution. […]. To determine the level of inhibition of growth, or reduction of growth based on a logarithmic scale, the initial concentration of viable microorganisms in each test preparation was estimated based on the concentration of microorganisms in each of the standardized inoculum as determined by the plate-count method. The inoculated containers were then incubated at about 22.5 °C±2.5. The growth or non-growth of the microorganisms in each culture/container were again determined at day 14 and day 28. The number of cfu present in each calculation was determined by the plate-count procedure standard in the art for the applicable intervals. The change in the orders of magnitude of bacterium and/or fungi was then determined by subtracting the first calculated log 10 values of the concentrations of cfu per mL present at the start or beginning (e.g., day 0), from the log 10 values of the concentration of cfu per mL for each microorganism at the applicable test intervals (e.g., day 14 and day 28; see Tables V, VI and VII).

Data set [2] relates to Escherichia coli (ATCC No. 8739). Description: Antibacterial activity, log reduction of cfu. It counts as cell-based. As to conditions: Escherichia coli.
Excerpt: as §1, §2, §3, §4, §5, §6

The nature of data set [3]: Oral phenylephrine tablet bioavailability in a canine model. The data set is classed as in vivo, dog. As to conditions: compressed tablets. On the procedure:
In a canine model, subjects were dosed orally with various phenylephrine (PE) tablet formulations, and blood samples were taken to determine the rate of parent phenyl ethyl phenylephrine absorption. Blood levels of parent phenylephrine were measured. Three subject groups were created with each alkylsaccharide test group containing five subjects in each test group. All subject groups received 10 mg of phenylephrine as a single tablet. Each subject was in the fasting state for overnight and two hours post dose. Blood samples were taken at pre-dose, 5, 10, 15, 30, 45 min., 1, 2, and 3 hours.
Comparator was the standard 30 mg (total weight including excipients) phenylephrine tablet was no absorption enhancer. Group number 2 tablets contain the alkylsaccharide designated A3, which is n-dodecyl-beta-D-maltoside in the amounts of 2.5 mg, 5 mg, and 7.5 mg, respectively. Group number three tablets contain the alkylsaccharide designated B3, which is sucrose monododecanoate, in the amounts of 5 mg, 10 mg, and 20 mg, respectively.

For data set [4] the following is noted: rat, in vivo.
Procedure: Each set of drug solutions is administered to six groups of eight rats each by 20 uL instillation to a single nare of each animal. […] After the last blood sample is collected each animal is euthanized with CO2. […] Plasma samples are stored at −70 °C until analyzed. […] The concentration vs time data are plotted to determine the Cmax at each alkylsaccharide concentration and the ratio of Cmax with and without alkylsaccharide present is calculated and recorded as shown in Table XIX.
For data set [5], the system named is blood glucose. Description: Ocular administration of insulin plus absorption enhancer, blood glucose in anesthetized rats. As to conditions: for Blood Glucose: insulin eye drops + 0.50%. The data set is classed as in vivo, rat (male Sprague-Dawley).
For data set [6], the system named is Candida albicans (ATCC No. 10231). As to the kind of experiment: Antimicrobial activity, log reduction of cfu. The data set is classed as cell-based.
Excerpt: as §1, §2, §3, §4, §5, §6

Data set [7] relates to Aspergillus niger (ATCC No. 16404). Description: Antimicrobial activity, log reduction of cfu. The data set is classed as cell-based. As to conditions: for log reduction at […]: Aspergillus niger.
Excerpt: as §1, §2, §3, §4, §5, §6

Data set [8] deals with blood glucose. Description: Oral liraglutide with Intravail A3, blood glucose under dietary sugar challenge. The data set is classed as in vivo, human. As to conditions: Intravail A3 (FIG. 11).
Procedure: Procedure was as follows. […] Composition was mixed with disposable plastic dropper. 40 grams of dietary sugar was ingested and 60 minutes allowed to pass. Blood glucose was measured (upper arm just above elbow on left arm) using meter=To. Deposit composition on back of tongue and swallow. Blood glucose level was measured and recorded at T=10, 20, 30, 40, 55, 70, 80 and 90 min.
The conditions of data set [9]: formulations specifically optimized for oral delivery; cited from earlier work.

The text below walks through data of US20260364175A1, “COMPOSITIONS FOR DRUG ADMINISTRATION” (Aegis Therapeutics, LLC, priority 2018, published 2026).

Where two headings read alike, the source gives them in different places. Bounds are passed on as bounds.

`CCCCCCCCCCCCO[C@@H]1O[C@H](CO)[C@@H](O[C@H]2O[C@H](CO)[C@@H](O)[C@H](O)[C@H]2O)[C@H](O)[C@H]1O` [Dodecyl Maltoside, n-Dodecyl-4-O-α-D-glucopyranosyl-β-D-glucopyranoside]: the log reduction at […] in data set [1] (ATCC6538, 336 h) was no less than 4.9; in [1] (ATCC6538, 336 h, read-out: log reduction of microorganisms), no less than 5.2; in data set [1] (ATCC6538, 672 h) it was no less than 4.9; in [1] (ATCC6538, 672 h, read-out: log reduction of microorganisms), no less than 5.2; in [2] (ATCC8739, 336 h), no less than 5; in data set [2] (ATCC8739, 672 h), no less than 5. The log reduction at […] in data set [2] (ATCC8739, 672 h, read-out: log reduction of microorganisms) is 0.1; in data set [6] (ATCC10231, 336 h) it was no less than 4.5; in data set [6] (ATCC10231, 336 h, read-out: log reduction of microorganisms), 3; in data set [6] (ATCC10231, 672 h) it was no less than 4.5; in [6] (ATCC10231, 672 h, read-out: log reduction of microorganisms), no less than 5.3; in data set [7] (ATCC16404, 336 h), 4.7. The log reduction at […] in data set [7] (ATCC16404, 336 h, read-out: log reduction of microorganisms) stood at 0.7; in [7] (ATCC16404, 672 h), 4.7. Moreover, in [3], the “increase of oral bioavailability of phenylephrine” value is recorded as “up to 56%”. The “Ratio Cmax(alkylsacch)/Cmax(No alkylsacch)” value in data set [4] was no less than 1.5. For the same compound, the “effect on ocular insulin absorption” value with blood glucose [5] (0.5% and […] enhancer with insulin eye drops) is on record as “equally effective”. Moreover, the “effect on blood glucose / ocular insulin absorption” value in the data set on blood glucose [5] (0.5% enhancer with 0.2% insulin eye drops) was “maintained in the normoglycemic (80-120 mg/dl) or near-normoglycemic (120-160 mg/dl) range”. The “effect on ocular insulin absorption (alkyl chain length comparison)” value in the data set with blood glucose [5] (alkylmaltosides with insulin eye drops) is recorded as “more effective”. The Blood Glucose is 379 ± 4 mg/dL in the data set on blood glucose [5] (0 min); 297 ± 18 mg/dL in the data set on blood glucose [5] (30 min); 188 ± 25 mg/dL with blood glucose [5] (60 min); 141 ± 13 mg/dL in the data set on blood glucose [5] (90 min); 123 ± 5 mg/dL in the data set with blood glucose [5] (120 min); 366 ± 12 mg/dL in the data set with blood glucose [5] (-10 min (pre-dose)). For the same compound, in the data set with blood glucose [5] (-20 min (pre-dose)), the Blood Glucose was 375 ± 9 mg/dL. Besides, the “growth from initial count” value in [7] ([…], day 28) is listed as “No growth”.
As for `CCCCCCCCCCCCCCCC(=O)N[C@@H](CCC(=O)NCCCC[C@H](NC(=O)[C@H](C)NC(=O)[C@H](C)NC(=O)[C@H](CCC(N)=O)NC(=O)CNC(=O)[C@H](CCC(=O)O)NC(=O)[C@H](CC(C)C)NC(=O)[C@H](Cc1ccc(O)cc1)NC(=O)[C@H](CO)NC(=O)[C@H](CO)NC(=O)[C@@H](NC(=O)[C@H](CC(=O)O)NC(=O)[C@H](CO)NC(=O)[C@@H](NC(=O)[C@H](Cc1ccccc1)NC(=O)[C@@H](NC(=O)CNC(=O)[C@H](CCC(=O)O)NC(=O)[C@H](C)NC(=O)[C@@H](N)Cc1cnc[nH]1)[C@@H](C)O)[C@@H](C)O)C(C)C)C(=O)N[C@@H](CCC(=O)O)C(=O)N[C@@H](Cc1ccccc1)C(=O)N[C@H](C(=O)N[C@@H](C)C(=O)N[C@@H](Cc1c[nH]c2ccccc12)C(=O)N[C@@H](CC(C)C)C(=O)N[C@H](C(=O)N[C@@H](CCCNC(=N)N)C(=O)NCC(=O)N[C@@H](CCCNC(=N)N)C(=O)NCC(=O)O)C(C)C)[C@@H](C)CC)C(=O)O` [Liraglutide], the dose response result in the data set with blood glucose [8] is “positive dose response”.
As for “Parathyroid hormone: parathyroid hormone”, the oral bioavailability in data set [9] is reported as 2.1%.
